The values that follow come from patent US20070238694A1, “Purine compounds and methods of use thereof” (Inotek Pharmaceuticals Corporation, priority 2006, published 2007).

Like-named read-outs stand apart in the source and are kept apart here.

Data set [1] is described as follows: Peak area of Compound X in plasma after intratracheal administration of Compound 54 (LC/MS). The data set is classed as in vivo, Sprague-Dawley rats. Here is the method: (§1) A 10 mg/mL solution of Compound 54 in saline was prepared and 0.2 mL of this solution was administered into the trachea of two Sprague-Dawley rats via intubation. Blood samples were taken at 10 minutes, 30 minutes, 60 minutes and 120 minutes, post-intubation. The plasma concentration of Compound 54 was measured at each of these time points using HPLC and the peak area of the amount of Compound X in the plasma was measured at each of these time points using LC/MS.
The peak area of Compound X correlates with the plasma concentration of this compound.

The nature of data set [2]: Plasma concentration of Compound 54 after intratracheal administration (HPLC). The format is in vivo, Sprague-Dawley rats. Particulars: Sprague-Dawley, rat, other: intratracheal (into the trachea via intubation), 2 mg per rat, 0.2 mL of 10 mg/mL solution in saline. How it is done:
as §1

For the molecule `CNC(=O)[C@H]1O[C@@H](n2cnc3c(NC)nc(C#N)nc32)[C@H](O)[C@@H]1O` [Compound X], the “Mean Peak Area” value was determined as 0.4 in data set [1] (120 min after intratracheal administration of Compound 54, Rat 2 value not available); 102 in data set [1] (mean of rats, 10 min after intratracheal administration of Compound 54); 10.8 in data set [1] (mean of rats, 30 min after intratracheal administration of Compound 54); 3.1 in data set [1] (mean of rats, 60 min after intratracheal administration of Compound 54). The “Peak Area Rat 1” value in data set [1] (Rat 1, 10 min after intratracheal administration of Compound 54) was found to be 140; in data set [1] (Rat 1, 30 min after intratracheal administration of Compound 54) it was 9.6; in data set [1] (Rat 1, 60 min after intratracheal administration of Compound 54), 4.4; in data set [1] (Rat 1, 120 min after intratracheal administration of Compound 54), 0.4. For the same molecule, the “Peak Area Rat 2” value in data set [1] (Rat 2, 10 min after intratracheal administration of Compound 54) was 64; in data set [1] (Rat 2, 30 min after intratracheal administration of Compound 54), 12; in data set [1] (Rat 2, 60 min after intratracheal administration of Compound 54), 1.8.
With `CNC(=O)[C@H]1O[C@@H](n2cnc3c(NC)nc(C#N)nc32)[C@@H]2OP(=O)(O)O[C@@H]21` [Compound 54], the concentration at 10 min in data set [2] (Rat 1, 10 min post-intubation, read-out: Plasma Concentration Rat 1) came out at 830 ng/mL; in data set [2] (mean of two rats, 10 min post-intubation, read-out: Mean Plasma Concentration) it was 728 ng/mL; in data set [2] (second rat column (head printed Rat 1), 10 min post-intubation, read-out: Plasma Concentration Rat 1) it was 627 ng/mL. Further, the concentration at 30 min in data set [2] (Rat 1, 30 min post-intubation, read-out: Plasma Concentration Rat 1) is 232 ng/mL; in data set [2] (mean of two rats, 30 min post-intubation, read-out: Mean Plasma Concentration), 217 ng/mL; in data set [2] (second rat column (head printed Rat 1), 30 min post-intubation, read-out: Plasma Concentration Rat 1), 202 ng/mL. Moreover, the concentration at 60 min in data set [2] (Rat 1, 60 min post-intubation, read-out: Plasma Concentration Rat 1) is 69.3 ng/mL; in data set [2] (mean of two rats, 60 min post-intubation, read-out: Mean Plasma Concentration), 47.6 ng/mL; in data set [2] (second rat column (head printed Rat 1), 60 min post-intubation, read-out: Plasma Concentration Rat 1), 26 ng/mL. Also, the concentration at 120 min in data set [2] (Rat 1, 120 min post-intubation, read-out: Plasma Concentration Rat 1) stood at 9.7 ng/mL; in data set [2] (mean of two rats, 120 min post-intubation, read-out: Mean Plasma Concentration), 9.6 ng/mL; in data set [2] (second rat column (head printed Rat 1), 120 min post-intubation, read-out: Plasma Concentration Rat 1), 9.5 ng/mL.
